Holding throughout (format): cell-based
Assay [1] has as its system PC3. As to the kind of experiment: Cytoxicity / crystal violet staining, PC3. The settings on record: average of triplicates, % of apoptotic cells vs DMSO controls, N.A. = not active at 10 μM. The protocol: (§1) PC3 (provided by Dr. Steven Balk's laboratory in Department of Medicine at Beth Israel Deaconess Medical Center), PANC02 and CRL2119 (provided by Dr. Pankaja Seth's laboratory in Department of Medicine at Beth Israel Deaconess Medical Center), A549 (ATCC) cell lines were cultured according to manufacturer's protocols. Briefly, PC3 were cultured in RPMI medium supplemented with 10% FBS (Atlanta). PANC-2, A549 and CRL2119 were cultured in DMEM High medium supplemented with 10% FBS (Atlanta). Human bronchial epithelial cells (BEC) were cultured in Airway Epithelial Cell Basal Medium with the Bronchial Epithelial cell growth kit (ATCC) according to manufacturer's protocol and used at passages 3-5.
(§2) Cells were seeded at 5×10^3 concentration in 96 well plates and treated with test compounds or DMSO (0.001-10 μM) for 72 hours. Culture medium was removed and cells were stained with crystal violet solution (Sigma-Aldrich) for 15 minutes while shaking at room temperature. Crystal violet was then removed and cells were repeatedly washed in water. Attached cells stained with crystal violet were dried and then resuspended in 10% acetic acid. Absorbance was measured at 562 nm. The intensity of staining corresponded directly to the number of live cells.

In assay [2] the test system is A549. As to the kind of experiment: Cytoxicity / crystal violet staining, A549. The following applies: average of triplicates, % of apoptotic cells vs DMSO controls, N.A. = not active at 10 μM. The protocol: as §1, §2
The test system of a further assay is PC3 cells. As to the kind of experiment: Immunostaining of α-tubulin and β-actin in PC3 cells. The following applies: Compound 6 1 μM or docetaxel 20 nM, 24 hours. On the procedure:
Immunofluorescence and immunostaining on cell lines and tumor samples were performed as described in Wegiel et al, Cancer research 2013, 73(23), 7009-21. Anti-mouse STMN1, anti-P (Ser10)-Histone H3, and α-tubulin antibody were obtained from Cell Signaling. β-actin antibody was obtained from Sigma-Aldrich. […] After immunofluorescence staining, the number of P-Histone H3 was quantified per field of view at 40× magnification using Zeiss Axiovert Microscope.

The subject of assay [3] is A549. The assay is described as follows: Cytoxicity / crystal violet staining, A549. The following applies: Homo sapiens, 0.01-5 μM for 72 hours, n=4.
The next assay relates to A549 cells. The assay is described as follows: Invasion chambers (Transwell, Matrigel). The settings on record: serum chemoattractants, compared to untreated cells. The protocol:
The invasion of A549 cells was measured using Transwell chambers (Chemicon, Millipore, Calif.) according to the manufacturer's protocol. Briefly, A549 cells were treated with test compounds at 1 μM in 500 μl of DMEM medium without FBS for 24 hours. Medium in the upper chamber was serum-free while medium in the lower chamber contained 10% FBS as a source of chemoattractants. Cells that passed through the Matrigel-coated membrane were stained and photographed after 24 hours of incubation. Absorbance was measured at 562 nm by ELISA reader after dissolving of stained cells in 10% acetic acid.

The test system of assay [4] is PC3. As to the kind of experiment: Cytoxicity / crystal violet staining, PC3. The settings on record: Homo sapiens, PC-3; 0.01-5 μM for 72 hours, n=4.

`COc1cc2c(cc1OC)C(=O)/C(=C/c1ccc3c(ccn3C)c1)CC2` [Compound 16]: in the assay on PC3 [1], the “Cytoxicity (% cell killing at 10 μM) PC3” value is listed as 31%.

With `COc1ccc2c(c1)C(=O)/C(=C/c1ccc3c(ccn3C)c1)CC2` [Compound 14], the “Cytoxicity (% cell killing at 10 μM) A549” value in the assay with A549 [2] stood at 21%. Moreover, the “Cytoxicity (% cell killing at 10 μM) PC3” value in the assay on PC3 [1] is given as 18%.

On to `Cn1ccc2cc(/C=C3\CCc4ccccc4C3=O)ccc21` [Compound 2], for which, in the assay with A549 [2], the “Cytoxicity (% cell killing at 10 μM) A549” value was 56%. Besides, in the assay with PC3 [1], the “Cytoxicity (% cell killing at 10 μM) PC3” value is 52%.

As to `Cn1ccc2ccc(/C=C3\CCc4ccccc4C3=O)cc21` [Compound 4], the “Cytoxicity (% cell killing at 10 μM) A549” value with A549 [2] came out at 53%. In addition, the “Cytoxicity (% cell killing at 10 μM) PC3” value with PC3 [1] is on record as 61%.

For `CC(=O)O[C@@]12CO[C@@H]1C[C@H](O)[C@@]1(C)C(=O)[C@H](O)C3=C(C)[C@@H](OC(=O)[C@H](O)[C@@H](NC(=O)OC(C)(C)C)c4ccccc4)C[C@@](O)([C@@H](OC(=O)c4ccccc4)[C@H]21)C3(C)C` [docetaxel, reference compound], the “microtubule stability (α-tubulin immunostaining)” value in the assay on PC3 cells is listed as “stabilization of microtubules”.

Turning to `CCn1ccc2cc(/C=C3\CCc4cc(OC)c(OC)cc4C3=O)ccc21` [Compound 17], the “Cytoxicity (% cell killing at 10 μM) A549” value with A549 [2] worked out at 19%. In addition, the “Cytoxicity (% cell killing at 10 μM) PC3” value with PC3 [1] was 45%.

On to `Cn1ccc2ccc(/C=C3\CCc4ccc(Br)cc4C3=O)cc21` [Compound 21], for which, in the assay with A549 [2], the “Cytoxicity (% cell killing at 10 μM) A549” value turned out to be 26%. For the same molecule, in the assay on PC3 [1], the “Cytoxicity (% cell killing at 10 μM) PC3” value was 39%.

With `O=C1/C(=C/c2ccc3[nH]ccc3c2)CCc2ccccc21` [Compound 1], the “Cytoxicity (% cell killing at 10 μM) A549” value in the assay with A549 [2] is 47%. Also, in the assay on PC3 [1], the “Cytoxicity (% cell killing at 10 μM) PC3” value was 55%.

Take `CCn1ccc2cc(/C=C3\CCc4ccc(F)cc4C3=O)ccc21` [Compound 8, (2E)-2-[(1-ethyl-1H-indol-5-yl)methylidene]-7-fluoro-1,2,3,4-tetrahydronaphthalen-1-one]: the results for the concentration for half-maximal inhibition (IC50) in the assay on A549 [3] and in the assay on PC3 [4] were 113 nM and 106 nM, respectively. In addition, in the assay on A549 cells, the “invasion / migration through matrigel coated chambers” value is on record as “strongly inhibited invasion”. Further, the “Cytoxicity (% cell killing at 10 μM) A549” value in the assay with A549 [2] is 38%. For the same molecule, the “Cytoxicity (% cell killing at 10 μM) PC3” value in the assay with PC3 [1] worked out at 33%.

As for `CCn1ccc2cc(/C=C3\CCc4ccc(OC)cc4C3=O)ccc21` [Compound 12], in the assay on A549 [2], the “Cytoxicity (% cell killing at 10 μM) A549” value was 20%. The “Cytoxicity (% cell killing at 10 μM) PC3” value with PC3 [1] was 49%.

Take `O=C1/C(=C/c2ccc3[nH]ccc3c2)CCc2ccc(F)cc21` [Compound 7, (2E)-7-fluoro-2-(1H-indol-5-ylmethylidene)-1,2,3,4-tetrahydronaphthalen-1-one]: the IC50 (commonly the point on the concentration scale where inhibition reaches its midpoint) in the assay with A549 [3] amounted to 271 nM; in the assay with PC3 [4] it was 449 nM. Also, in the assay with A549 cells, the “invasion / migration through matrigel coated chambers” value was “accelerated migration”. Besides, the “Cytoxicity (% cell killing at 10 μM) A549” value with A549 [2] stood at 43%. In addition, in the assay with PC3 [1], the “Cytoxicity (% cell killing at 10 μM) PC3” value was determined as 45%.

On to `COc1cc2c(cc1OC)C(=O)/C(=C/c1ccc3ccn(C)c3c1)CC2` [Compound 18], for which the “Cytoxicity (% cell killing at 10 μM) A549” value with A549 [2] amounted to 41%. In addition, the “Cytoxicity (% cell killing at 10 μM) PC3” value in the assay with PC3 [1] is 55%.

In the case of `Cn1ccc2cc(/C=C3\CCc4ccc(Br)cc4C3=O)ccc21` [Compound 20], the “Cytoxicity (% cell killing at 10 μM) A549” value in the assay on A549 [2] came out at 21%. Besides, the “Cytoxicity (% cell killing at 10 μM) PC3” value in the assay on PC3 [1] worked out at 47%.

On to `O=C1/C(=C/c2ccc3[nH]ccc3c2)CCc2ccc(Br)cc21` [Compound 19], for which the “Cytoxicity (% cell killing at 10 μM) A549” value with A549 [2] was 16%. Moreover, the “Cytoxicity (% cell killing at 10 μM) PC3” value with PC3 [1] is given as 42%.

Consider `COc1ccc2c(c1)C(=O)/C(=C/c1ccc3ccn(C)c3c1)CC2` [Compound 15], for which, in the assay with A549 [2], the “Cytoxicity (% cell killing at 10 μM) A549” value turned out to be 24%. Moreover, the “Cytoxicity (% cell killing at 10 μM) PC3” value in the assay with PC3 [1] is 42%.

As for `CCn1ccc2cc(/C=C3\CCc4ccccc4C3=O)ccc21` [Compound 3], the “Cytoxicity (% cell killing at 10 μM) A549” value in the assay with A549 [2] came out at 52%. In the assay on PC3 [1], the “Cytoxicity (% cell killing at 10 μM) PC3” value turned out to be 58%.

Turning to `COc1ccc2c(c1)C(=O)/C(=C/c1ccc3[nH]ccc3c1)CC2` [Compound 13], in the assay on A549 [2], the “Cytoxicity (% cell killing at 10 μM) A549” value came to 5%. Further, the “Cytoxicity (% cell killing at 10 μM) PC3” value with PC3 [1] was 55%.

Consider `CC(=O)n1ccc2cc(/C=C3\CCc4ccc(F)cc4C3=O)ccc21` [Compound 9], for which, in the assay on A549 [2], the “Cytoxicity (% cell killing at 10 μM) A549” value is 28%. For the same molecule, the “Cytoxicity (% cell killing at 10 μM) PC3” value in the assay with PC3 [1] was determined as 24%.

These data come from patent US10512631B2, “Chalcone compounds” (Beth Israel Deaconess Medical Center, Inc., priority 2015, dated 2019).
